# Values of other authors in US11185540B2, “Extended release compositions of opioid antagonists and phosphodiesterase 5 inhibitors” (Pardon My Scotch, LLC, priority 2017, dated 2021).
# What was measured:
# [1] = system: PDE6
# [2] = target: PDE9 (Homo sapiens, UniProt O76083)
# [3] = in vivo
# [4] = target: PDE5 (Homo sapiens, UniProt O76074)
# Chain of PDE9 (O76083 whole entry): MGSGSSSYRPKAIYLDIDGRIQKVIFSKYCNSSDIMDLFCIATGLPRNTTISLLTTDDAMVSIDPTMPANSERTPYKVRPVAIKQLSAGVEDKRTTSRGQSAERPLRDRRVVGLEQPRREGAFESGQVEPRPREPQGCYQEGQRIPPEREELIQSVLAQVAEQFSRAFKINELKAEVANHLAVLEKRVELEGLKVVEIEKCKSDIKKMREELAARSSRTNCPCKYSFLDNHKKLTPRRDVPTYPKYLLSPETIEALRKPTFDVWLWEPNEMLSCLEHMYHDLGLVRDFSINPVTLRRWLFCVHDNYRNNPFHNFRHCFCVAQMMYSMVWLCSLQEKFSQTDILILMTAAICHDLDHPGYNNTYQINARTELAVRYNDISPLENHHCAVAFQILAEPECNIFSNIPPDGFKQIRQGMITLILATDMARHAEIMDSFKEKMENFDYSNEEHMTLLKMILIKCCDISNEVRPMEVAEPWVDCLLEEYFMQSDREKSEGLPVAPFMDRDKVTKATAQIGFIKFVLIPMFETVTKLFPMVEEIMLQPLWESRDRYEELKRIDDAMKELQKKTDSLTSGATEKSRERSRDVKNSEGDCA
SMILES,Inhibition of PDE6 [1],Inhibition of PDE9 [2],Plasma half-life [3],Inhibition of PDE5 [4]
CCCc1nn(C)c2c(=O)[nH]c(-c3cc(S(=O)(=O)N4CCN(C)CC4)ccc3OCC)nc12 [sildenafil],inhibit,inhibit,5 to 7 h,
"CN1CC(=O)N2[C@H](c3ccc4c(c3)OCO4)c3[nH]c4ccccc4c3C[C@@H]2C1=O [tadalafil, pyrazino[1′,2′:1,6]pyrido[3,4-b]indole-1,4-dione, 6-(1,3-benzodioxol-5-yl)-2,3,6,7,12,12a-hexahydro-2-methyl-, (6R,12aR)-]",,,,inhibit
CCCc1nc(C)c2c(=O)[nH]c(-c3cc(S(=O)(=O)N4CCN(CC)CC4)ccc3OCC)nn12 [vardenafil],,,5 to 7 h,
